According to ChEMBL document CHEMBL1139767, “Dragon method for finding novel tyrosinase inhibitors: Biosilico identification and experimental in vitro assays” (Eur J Med Chem, 2007):

The compounds below were run against T1, Tyrosinase (Agaricus bisporus, UniProt O42713).
T1 sequence (O42713 whole entry): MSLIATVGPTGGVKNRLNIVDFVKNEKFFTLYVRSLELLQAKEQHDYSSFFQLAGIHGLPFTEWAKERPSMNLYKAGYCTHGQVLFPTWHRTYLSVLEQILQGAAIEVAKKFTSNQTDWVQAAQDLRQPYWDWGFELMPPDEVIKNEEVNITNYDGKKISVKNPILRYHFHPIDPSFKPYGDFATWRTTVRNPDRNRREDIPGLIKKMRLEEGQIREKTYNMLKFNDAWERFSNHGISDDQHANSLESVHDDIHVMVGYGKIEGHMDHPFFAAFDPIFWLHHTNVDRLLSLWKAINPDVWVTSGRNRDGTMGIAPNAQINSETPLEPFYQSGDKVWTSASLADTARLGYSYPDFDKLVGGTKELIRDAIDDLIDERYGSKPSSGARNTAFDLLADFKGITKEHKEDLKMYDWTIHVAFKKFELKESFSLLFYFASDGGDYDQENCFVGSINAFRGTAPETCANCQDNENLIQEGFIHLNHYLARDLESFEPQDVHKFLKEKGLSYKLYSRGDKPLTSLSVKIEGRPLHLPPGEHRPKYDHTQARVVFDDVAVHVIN
Description: Inhibition of mashroom tyrosinase

SMILES | IC50 [µM]
CC(=O)N1CCC(N2CCCCC2)CC1 | 29.9
Cc1ccc(CN2CCC(N3CCCCC3)CC2)cc1 | 1.72
O=[N+]([O-])c1ccc(S(=O)(=O)N2CCC(N3CCCCC3)CC2)cc1 | 111
c1ccc(OCCCN2CCC(N3CCCCC3)CC2)cc1 | 19.5
C1CCN(C2CCNCC2)CC1 [[1,4']Bipiperidinyl] | 111
